From patent US20120088665A1, “FUNGICIDAL MIXTURES” (BASF SE, priority 2009, published 2012)

How the values were obtained:
Phytophthora infestans = experiment: microbe, parasite or virus in culture; assay type: cell-based
Botrytis cinerea = experiment: Activity against the gray mold pathogen Botrytis cinerea in the microtiter test (Botrci); assay type: cell-based; conditions: for inhibition of growth at 0.016 ppm: conc 0.016 ppm; for inhibition of growth at 0.063 ppm: conc 0.063 ppm; for inhibition of growth at 1 ppm: conc 1 ppm; for inhibition of growth at […]: conc 0.25 ppm
Pyricularia oryzae = experiment: microbe, parasite or virus in culture; assay type: cell-based
Septoria tritici = experiment: Activity against the Septoria leaf spot pathogen Septoria tritici in the microtiter test (Septtr); assay type: cell-based; conditions: single active compound; for inhibition of growth at 0.004 ppm: conc 0.004 ppm; for inhibition of growth at 0.016 ppm: conc 0.016 ppm; for inhibition of growth at […]: conc 0.25 ppm; for inhibition of growth at 0.063 ppm: conc 0.063 ppm
Fusarium culmorum = experiment: Activity against Fusarium culmorum in the microtiter test (Fusacu); assay type: cell-based; conditions: single active compound
[1] = Botrytis cinerea, 168 h, read-out: Observed activity
[2] = Zymoseptoria tritici, 168 h, read-out: Observed activity
[3] = Fusarium culmorum, 168 h, read-out: Observed activity
[4] = Zymoseptoria tritici, 168 h, conc 1 ppm, read-out: Observed activity
[5] = Pyricularia oryzae, 168 h, read-out: Observed activity
[6] = Fusarium culmorum, 168 h, 16 ppm, read-out: Observed activity
[7] = Phytophthora infestans, 168 h, read-out: Observed activity
[8] = Botrytis cinerea, 168 h, conc 4 ppm, read-out: Observed activity

**Q.** With “1-(4-chlorophenyl)-3-(5-mercapto-[1,2,4]triazol-1-ylmethyl)-4,4-dimethylpentan-3-ol [I-9]” as the compound, how does the Observed activity (Phytophthora infestans; conc 16 ppm) read?
**A.** 52%

**Q.** What about the Observed activity (Botrytis cinerea; conc 4 ppm) of the same compound?
**A.** 23%

**Q.** What about the Observed activity (Pyricularia oryzae; Pyrior, single active compound, conc 16 ppm) of the same compound?
**A.** 57

**Q.** What about the Observed activity (Septoria tritici; conc 1 ppm) of the same compound?
**A.** 20

**Q.** What about the Observed activity (Septoria tritici; conc 4 ppm) of the same compound?
**A.** 64

**Q.** And the Observed activity (Fusarium culmorum; 16 ppm)?
**A.** 4%

**Q.** Which inhibition of growth at 0.016 ppm (Botrytis cinerea; [1]) does the source give for `Fc1ccc([C@]2(Cn3cncn3)O[C@H]2c2ccccc2Cl)cc1` (racemic) [epoxiconazole] here?
**A.** 7%

**Q.** And the inhibition of growth at 0.063 ppm (Botrytis cinerea; [1])?
**A.** 25%

**Q.** And the inhibition of growth at 0.004 ppm (Septoria tritici; [2])?
**A.** 4%

**Q.** And the inhibition of growth at 0.016 ppm (Septoria tritici; [2])?
**A.** 47%

**Q.** And the inhibition of growth at […] (Fusarium culmorum; Fusarium culmorum, 168 h, 0.25 ppm, read-out: Observed activity)?
**A.** 0%

**Q.** For `CCCCCCCCc1c(CC)nc2ncnn2c1N` [5-ethyl-6-octyl-[1,2,4]triazolo-[1,5-a]pyrimidin-7-ylamine], which inhibition of growth at 4 ppm (Fusarium culmorum; [3]) is on record?
**A.** 2%

**Q.** For `CCCCCCCCc1c(CC)nc2ncnn2c1N` [5-ethyl-6-octyl-[1,2,4]triazolo[1,5-a]pyrimidin-7-ylamine], which inhibition of growth at 1 ppm (Botrytis cinerea; [1]) is on record?
**A.** 6%

**Q.** What about the inhibition of growth at 1 ppm (Septoria tritici; [4]) of the same compound?
**A.** 0%

**Q.** Which inhibition of growth at 1 ppm (Botrytis cinerea; [1]) does the source give for `CC1(C)CCC(Cc2ccc(Cl)cc2)C1(O)Cn1ncnc1S` (centres unmarked) [I-4, 5-(4-chlorobenzyl)-1-(5-mercapto-[1,2,4]triazol-1-ylmethyl)-2,2-dimethylcyclopentanol] here?
**A.** 28%

**Q.** What about the inhibition of growth at 4 ppm (Pyricularia oryzae; [5]) of the same compound?
**A.** 3%

**Q.** What about the inhibition of growth at […] (Septoria tritici; [2]) of the same compound?
**A.** 63%

**Q.** What about the inhibition of growth at 1 ppm (Septoria tritici; [4]) of the same compound?
**A.** 68%

**Q.** What about the inhibition of growth at 16 ppm (Fusarium culmorum; [6]) of the same compound?
**A.** 3%

**Q.** And the melting point?
**A.** 186 to 196 °C

**Q.** Which results are given for `CC1COC(Cn2ncnc2S)(c2ccc(Oc3ccc(Cl)cc3)cc2Cl)O1` (centres unmarked) [I-5, 2-{2-[2-chloro-4-(4-chlorophenoxy)phenyl]-4-methyl-[1,3]dioxolan-2-ylmethyl}-2H-[1,2,4]triazole-3-thiol]?
**A.** inhibition of growth at 1 ppm (Phytophthora infestans; [7]): 8%; inhibition of growth at 4 ppm (Botrytis cinerea; [8]): 36%; melting point: 73.4 °C

**Q.** For `CCCCC(C#N)(Cn1ncnc1S)c1ccc(Cl)cc1` (centres unmarked) [I-10, 2-(4-chlorophenyl)-2-(5-mercapto-[1,2,4]triazol-1-ylmethyl)hexanenitrile], which inhibition of growth at 4 ppm (Phytophthora infestans; [7]) is on record?
**A.** 2%

**Q.** What about the inhibition of growth at 16 ppm (Pyricularia oryzae; [5]) of the same compound?
**A.** 8%

**Q.** And the inhibition of growth at 1 ppm (Septoria tritici; [4])?
**A.** 2%

**Q.** Which results are given for `CCCC(Cn1ncnc1S)c1ccc(Cl)cc1Cl` (centres unmarked) [I-16, 2-[2-(2,4-dichlorophenyl)pentyl]-2H-[1,2,4]triazole-3-thiol]?
**A.** inhibition of growth at 16 ppm (Phytophthora infestans; [7]): 47%; inhibition of growth at 4 ppm (Botrytis cinerea; [8]): 31%; inhibition of growth at 1 ppm (Pyricularia oryzae; [5]): 1%; inhibition of growth at 16 ppm (Fusarium culmorum; [6]): 6%

**Q.** Which inhibition of growth at 4 ppm (Botrytis cinerea; [8]) does the source give for `CCCC1COC(Cn2ncnc2S)(c2ccc(Cl)cc2Cl)O1` (centres unmarked) [I-17, 2-[2-(2,4-dichlorophenyl)-4-propyl-[1,3]dioxolan-2-ylmethyl]-2H-[1,2,4]triazole-3-thiol] here?
**A.** 33%

**Q.** And the inhibition of growth at […] (Septoria tritici; [2])?
**A.** 38%

**Q.** And the inhibition of growth at 16 ppm (Fusarium culmorum; [6])?
**A.** 7%

**Q.** With `CC1(C)CC/C(=C\c2ccc(Cl)cc2)C1(O)Cn1ncnc1S` (centres unmarked) [I-22, 5-[1-(4-chlorophenyl)meth-(E)-ylidene]-1-(5-mercapto-[1,2,4]triazol-1-ylmethyl)-2,2-dimethylcyclopentanol] as the compound, how does the inhibition of growth at 1 ppm (Phytophthora infestans; [7]) read?
**A.** 6%

**Q.** And the inhibition of growth at 16 ppm (Botrytis cinerea; Botrytis cinerea, 168 h, conc 16 ppm, read-out: Observed activity)?
**A.** 8%

**Q.** What about the inhibition of growth at 16 ppm (Septoria tritici; Zymoseptoria tritici, 168 h, conc 16 ppm, read-out: Observed activity) of the same compound?
**A.** 22%

**Q.** And the melting point?
**A.** 176.5 °C

**Q.** What does the source list for `CC(C1CC1)C(O)(Cn1ncnc1S)c1ccc(Cl)cc1` (centres unmarked) [I-23]?
**A.** Observed activity (Botrytis cinerea; conc 16 ppm): 26%; Observed activity (Septoria tritici; conc 1 ppm): 7; Observed activity (Septoria tritici; conc 4 ppm): 9

**Q.** For `O=C(Nc1ccccc1-c1ccc(Cl)cc1)c1cccnc1Cl` [II-24, boscalid], which inhibition of growth at 4 ppm (Pyricularia oryzae; [5]) is on record?
**A.** 0%

**Q.** What about the inhibition of growth at […] (Septoria tritici; [2]) of the same compound?
**A.** 59%

**Q.** And the inhibition of growth at 4 ppm (Fusarium culmorum; [3])?
**A.** 0%

**Q.** For `Cn1cc(C(=O)Nc2ccccc2-c2cc(F)c(F)c(F)c2)c(C(F)F)n1` [N-(3′,4′,5′-trifluorobiphenyl-2-yl)-3-difluoromethyl-1-methyl-1H-pyrazole-4-carboxamide], which inhibition of growth at 0.016 ppm (Botrytis cinerea; [1]) is on record?
**A.** 9%

**Q.** What about the inhibition of growth at 0.004 ppm (Septoria tritici; [2]) of the same compound?
**A.** 4%

**Q.** Which inhibition of growth at 0.016 ppm (Botrytis cinerea; [1]) does the source give for `N#Cc1c(Cl)c(Cl)c(Cl)c(C#N)c1Cl` [chlorothalonil] here?
**A.** 2%

**Q.** What about the inhibition of growth at 0.016 ppm (Pyricularia oryzae; [5]) of the same compound?
**A.** 0%

**Q.** And the inhibition of growth at 0.016 ppm (Septoria tritici; [2])?
**A.** 8%

**Q.** With `CC1CN(C2CCCCCCCCCCC2)CC(C)O1` (centres unmarked) [dodemorph] as the compound, how does the inhibition of growth at […] (Botrytis cinerea; [1]) read?
**A.** 7%

**Q.** And the inhibition of growth at 1 ppm (Botrytis cinerea; [1])?
**A.** 9%

**Q.** What about the inhibition of growth at 4 ppm (Botrytis cinerea; [8]) of the same compound?
**A.** 33%

**Q.** And the inhibition of growth at 4 ppm (Pyricularia oryzae; [5])?
**A.** 1%

**Q.** What about the inhibition of growth at 0.063 ppm (Septoria tritici; [2]) of the same compound?
**A.** 0%

**Q.** And the inhibition of growth at […] (Septoria tritici; [2])?
**A.** 0%

**Q.** And the inhibition of growth at 4 ppm (Septoria tritici; Zymoseptoria tritici, 168 h, conc 4 ppm, read-out: Observed activity)?
**A.** 23%

**Q.** Which results are given for `CC(Cc1ccc(C(C)(C)C)cc1)CN1C[C@@H](C)O[C@@H](C)C1` (some centres unmarked) [fenpropimorph]?
**A.** inhibition of growth at 0.063 ppm (Phytophthora infestans; [7]): 4%; inhibition of growth at 0.063 ppm (Botrytis cinerea; [1]): 16%; inhibition of growth at […] (Botrytis cinerea; [1]): 26%; inhibition of growth at 1 ppm (Pyricularia oryzae; [5]): 14%; inhibition of growth at 0.063 ppm (Septoria tritici; [2]): 3%; inhibition of growth at […] (Septoria tritici; [2]): 2%; inhibition of growth at 1 ppm (Fusarium culmorum; Fusarium culmorum, 168 h, 1 ppm, read-out: Observed activity): 9%
